Where two headings read alike, the source gives them in different places. Each block holds one compound with its values, some of them ahead of it.
Key:
Fusarium proliferatum = assay: Production of Fumonisin FB1 by Fusarium proliferatum (microtitre plate, FB1 by HPLC-MS/MS, growth by OD); assay type: cell-based; settings: OD620 at the beginning and after 6 days
[1] = logP by HPLC on reversed-phase columns (C 18), EEC Directive 79/831 Annex V.A8; assay type: physicochemical
[2] = reversed-phase HPLC column (C 18), pH 2.3, pH 2.3, 0.1% aqueous phosphoric acid and acetonitrile, read-out: logP [a]
[3] = method marker [a], footnote not given
[4] = method marker [b] (compound 257: pH2.7)
[5] = values marked [b], footnote not given
[6] = values marked [c], footnote not given
[7] = pH 2.3, 0.1% aqueous phosphoric acid and acetonitrile
[8] = method marker [b], footnote not given, compound 68 value matches logP (pH 2.3)

Structure (SMILES): CCCC(CC)Nc1nc(Nc2ccccc2)ncc1Br (centres unmarked) [Example 228]
- pI50 growth (Fusarium proliferatum): <4.3
- logP ([1]; values marked [a], pH 2.3): 2.44[a]

- chromatographic logP ([1]; reversed-phase HPLC column (C 18), pH 2.3, method marker [b], footnote not given, compound 68 value matches logP (pH 2.3), read-out: logP): 2.68
- chromatographic logP [1, 2]: 2.68
Structure (SMILES): CCCNc1nc(Nc2ccccc2)ncc1C#N [Example 68, 2-(Phenylamino)-4-(propylamino)pyrimidine-5-carbonitrile]

- logP [1, 3]: 1.69[a]
Structure (SMILES): COCC(C)Nc1nc(Nc2ccc(OC(C)C)cc2)ncc1Cl (centres unmarked) [Example 8]

- logP [1, 4]: 1.48[b]
Structure (SMILES): Cc1cnc(Nc2ccccc2)nc1NC(C)(C)C [Example 297]

- logP [1, 4]: 2.66[b]
- logP ([1]; method marker [c]): 4.03[c];
Structure (SMILES): C=CCN(C)c1nc(Nc2ccccc2)ncc1Cl [Example 271]

- logP [1, 5]: 1.28[b]
Structure (SMILES): COCC(C)Nc1nc(Nc2ccc(NC=O)cc2)ncc1Cl (racemic) [Example 138]

- logP [1, 5]: 1.86[b]
Structure (SMILES): CC(C)Nc1nc(Nc2ccc(S(C)(=O)=O)cc2)ncc1Cl [Example 186]

- logP [1, 3]: 1.16[a]
Structure (SMILES): CCN(CC)c1ccc(Nc2ncc(Cl)c(NC(C)COC)n2)cc1 (centres unmarked) [Example 13]

- logP [1, 5]: 2.11[b]
- logP [1, 6]: 3.85[c];
Structure (SMILES): CCN(C)c1nc(Nc2ccccc2)ncc1Cl [Example 241]

- logP [1, 4]: 1.87[b]
Structure (SMILES): C=CCCNc1nc(Nc2ccccc2)ncc1Cl [Example 294]

- logP [1, 5]: 1.41[b]
Structure (SMILES): COCC(C)Nc1nc(Nc2ccc(N3C(=O)CN(C)C3=O)cc2)ncc1Cl (centres unmarked) [Example 227]

- logP ([1]; values marked [a], pH 2.3): 3.48[a];
- logP [1, 6]: 4.59[c]
Structure (SMILES): CSCC(C)(C)Nc1nc(Nc2cccc(SC)c2)ncc1Cl [Example 175]

- logP [1, 3]: 2.84[a]
Structure (SMILES): CC(C)(C)Nc1nc(Nc2ccc(S(=O)(=O)N3CCOCC3)cc2)ncc1Cl [Example 64]

- logP [1, 3]: 2.04[a]
Structure (SMILES): CSCC(C)Nc1nc(Nc2ccccc2)ncc1Cl (centres unmarked) [Example 37]

- logP [1, 4]: 2.18[b]
- logP ([1]; method marker [c]): 3.35[c];
Structure (SMILES): CC(C)Nc1nc(Nc2cccc(CS(=O)(=O)NCc3ccccc3)c2)ncc1Cl [Example 251]

- logP [a] [1, 7]: 0.58[a]
Structure (SMILES): COCC(C)Nc1nc(Nc2ccc(O)nc2)ncc1Br (centres unmarked) [II-4]

- logP [1, 3]: 1.83[a]
Structure (SMILES): CCC(CO)Nc1nc(Nc2ccc(S(=O)(=O)N(C)C)cc2)ncc1Cl (centres unmarked) [Example 22]

- logP [1, 3]: 2.02[a];
- logP [1, 8]: 2.18[b]
Structure (SMILES): COCC(C)Nc1nc(Nc2cccc(S(=O)(=O)N(C)C)c2)ncc1Cl (centres unmarked) [Example 31]

- logP [1, 5]: 1.39[b]
Structure (SMILES): CC(=O)Nc1cccc(Nc2ncc(Cl)c(NC(C)C)n2)c1 [Example 195]

- logP [1, 4]: 2.53[b]
Structure (SMILES): CC(=O)c1cccc(Nc2ncc(Cl)c(NC3CCCCC3)n2)c1.Cl [Example 249]

- logP [1, 3]: 1.27[a]
Structure (SMILES): CNc1nc(Nc2ccccc2)ncc1Cl [Example 35]

- logP [1, 4]: 3.9[b]
Structure (SMILES): CCCCN(C)c1nc(Nc2cccc(SC)c2)ncc1Cl [Example 282]

- logP [1, 4]: 2.77[b]
Structure (SMILES): COc1cc(Nc2ncc(Cl)c(NC3CCCCC3)n2)cc(OC)c1 [Example 260]

- logP [1, 3]: 2.25[a];
- logP [1, 8]: 2.26[b]
- logP [a] [1, 7]: 2.25
Structure (SMILES): COCC(C)Nc1nc(Nc2ccc(S(=O)(=O)N(C)C)cc2)ncc1Cl (centres unmarked) [Example 16]

- logP [1, 5]: 1.61[b]
Structure (SMILES): CC(=O)Nc1ccc(Nc2ncc(Cl)c(NC(C)C)n2)cc1Cl [Example 190]

- logP [1, 3]: 1.41[a];
- logP [1, 8]: 1.41[b]
Structure (SMILES): COCCNc1nc(Nc2ccccc2)ncc1Cl.Cl [Example 61]

- logP [1, 3]: 1.41[a]
Structure (SMILES): CCC(CO)Nc1nc(Nc2ccccc2)ncc1Cl (centres unmarked) [Example 18]

- logP [1, 5]: 2.33[b]
Structure (SMILES): COCC(C)Nc1nc(Nc2ccc(N(C(C)=O)C3CCCCC3)cc2)ncc1Cl (centres unmarked) [Example 161]

- logP [1, 5]: 1.46[b]
Structure (SMILES): COCC(C)Nc1nc(Nc2ccc(NC(C)=O)c(OC)c2)ncc1Br (racemic) [Example 125]

Structure (SMILES): CNC(=O)Oc1cccc(Nc2ncc(Cl)c(NC(C)COC)n2)c1 (racemic) [Example 144]
- logP [1, 5]: 1.48[b]

- chromatographic logP [1, 2]: 3.51
Structure (SMILES): CCCCCNc1nc(Cl)ncc1Cl [Example V-31, 2,5-dichloro-N-(pentyl)pyrimidine-4-amine]

- logP [1, 5]: 1.38[b]
Structure (SMILES): CNC(=O)c1ccc(Nc2ncc(Cl)c(NC(C)COC)n2)cc1 (racemic) [Example 135]

- logP [1, 5]: 2.77[b]
Structure (SMILES): COCC(C)Nc1nc(Nc2cccc(S(=O)(=O)N3CCCCC3)c2)ncc1Cl (centres unmarked) [Example 150]

- chromatographic logP [1, 2]: 2.43
Structure (SMILES): O=[N+]([O-])c1cccc(CS(=O)(=O)NCc2ccccc2)c1 [IV-4, N-(benzyl)-1-(3-nitrophenyl)methanesulphonamide]

- chromatographic logP [1, 2]: 2.93
Structure (SMILES): CC(C)CNc1nc(Cl)ncc1Cl [Example V-29, 2,5-dichloro-N-(2-methylpropyl)pyrimidine-4-amine]

- logP [1, 3]: 2.96[a]
Structure (SMILES): CC(C)N(C)c1nc(Nc2cccc(S(=O)(=O)N(C)C)c2)ncc1Cl [Example 43]

- chromatographic logP [1, 2]: 3.44
Structure (SMILES): CC(C)(C)CNc1nc(Cl)ncc1Cl [Example V-32, 2,5-dichloro-N-(2,2-dimethylpropyl)pyrimidine-4-amine]

- logP [1, 5]: 1.68[b]
Structure (SMILES): COCC(C)Nc1nc(Nc2cccc(NC(=O)C(C)C)c2)ncc1Cl (centres unmarked) [Example 156]

- chromatographic logP ([1]; pH 2.3, logP [a]): 3.47
Structure (SMILES): CSCC(C)(C)Nc1nc(Cl)ncc1Cl [Example V-7, 2,5-dichloro-N-[2-methyl-1-(methylsulphanyl)propan-2-yl]pyrimidine-4-amine]

- logP [1, 4]: 2.04[b]
- logP ([1]; method marker [c]): 3.64[c];
Structure (SMILES): COC(C)C(C)Nc1nc(Nc2ccccc2)ncc1Cl (centres unmarked) [Example 295]

- logP [1, 5]: 1.83[b]
Structure (SMILES): COCC(C)Nc1nc(Nc2cccc(NC(=O)C(C)(C)CF)c2)ncc1Cl (centres unmarked) [Example 166]

- logP [1, 5]: 1.91[b]
Structure (SMILES): CC(C)Nc1nc(Nc2cccc(NC(=O)C(C)(C)C)c2)ncc1Cl [Example 197]

- logP [1, 3]: 2.88[a]
Structure (SMILES): CCC(C)N(C)c1nc(Nc2cccc(C(C)=O)c2)ncc1Cl.Cl (centres unmarked) [Example 41]

- logP [1, 3]: 1.77[a]
Structure (SMILES): CC(C)Nc1nc(Nc2ccccc2)ncc1Cl [Example 36]

- logP [1, 8]: 2.82[b]
Structure (SMILES): COCC(C)Nc1nc(Nc2cccc(Cl)c2)ncc1Br (centres unmarked) [Example 71]

- logP [1, 3]: 1.49[a];
- logP [1, 8]: 1.49[b]
Structure (SMILES): COCCNc1nc(Nc2cccc(C(C)=O)c2)ncc1Cl [Example 5]

- logP [1, 3]: 2.58[a]
Structure (SMILES): COCC(C)Nc1nc(Nc2cccc(Cl)c2)ncc1Cl (centres unmarked) [Example 10]

- logP ([1]; values marked [a], pH 2.3): 2.23[a]
Structure (SMILES): CCC(COC)N(C)c1nc(Nc2ccccc2)ncc1Br (centres unmarked) [Example 232]

- logP [1, 5]: 1.92[b]
Structure (SMILES): COCC(C)Nc1nc(Nc2ccc(C(=O)Nc3ccccc3)cc2)ncc1Br (racemic) [Example 126]

- logP [1, 5]: 1.38[b]
- logP [1, 6]: 3.03[c];
Structure (SMILES): CCNc1nc(Nc2ccccc2)ncc1Cl [Example 240]

- logP [1, 3]: 2.05[a];
- logP [1, 8]: 2.05[b]
Structure (SMILES): COCCNc1nc(Nc2ccc(N3CCN(C(=O)OC(C)(C)C)CC3)cc2)ncc1Cl [Example 7]

Structure (SMILES): CNC(=O)Oc1cccc(Nc2ncc(Br)c(NC(C)COC)n2)c1 (racemic) [Example 130]
- logP [1, 5]: 1.56[b]

- logP [1, 3]: 1.48[a]
Structure (SMILES): CC(C)Oc1ccc(Nc2ncc(Cl)c(NCCO)n2)cc1.Cl [Example 59]

- logP [1, 8]: 2.02[b]
Structure (SMILES): COCC(C)Nc1nc(Nc2ccc(F)cc2F)ncc1Cl (centres unmarked) [Example 81]

- logP [1, 5]: 2.06[b]
Structure (SMILES): COCC(C)Nc1nc(Nc2ccc(SC)cc2)ncc1Cl (centres unmarked) [Example 149]

- logP [1, 8]: 2.95[b]
Structure (SMILES): COCC(C)Nc1nc(Nc2ccc(C(=O)OC)c(Cl)c2)ncc1Cl (centres unmarked) [Example 95]

Structure (SMILES): CCC(CC)Nc1nc(Cl)ncc1Cl [Example V-23]
- chromatographic logP ([1]; pH 2.3, 0.1% aqueous phosphoric acid and acetonitrile, read-out: logP [a]): 3.39

- logP ([1]; method marker [a]): 2.53[a]
Structure (SMILES): CC(=O)c1cccc(Nc2ncc(Cl)c(NC3CCCCC3)n2)c1 [Example 262]

- chromatographic logP [1, 2]: 1.08
Structure (SMILES): CC(C)N(C)S(=O)(=O)Cc1cccc(N)c1 [IV-6, 1-(3-aminophenyl)-N-methyl-N-(propan-2-yl)methanesulphonamide]

Structure (SMILES): CC(C)Nc1nc(Nc2cccc(CS(=O)(=O)N(C)C)c2)ncc1Cl [Example 250]
- logP [1, 4]: 1.69[b]
- logP ([1]; method marker [c]): 2.85[c];

- logP [1, 8]: 4.32[b]
Structure (SMILES): COCC(C)Nc1nc(Nc2cc(Cl)cc(Cl)c2)ncc1Br (centres unmarked) [Example 114]

- logP [1, 3]: 1.78[a];
- logP [1, 8]: 1.73[b]
Structure (SMILES): CN(C)c1nc(Nc2ccccc2)ncc1Cl [Example 33]

- logP [1, 5]: 1.87[b]
Structure (SMILES): COCC(C)Nc1nc(Nc2ccc3sc(C)nc3c2)ncc1Br (centres unmarked) [Example 122]

- logP [1, 5]: 2.08[b]
Structure (SMILES): CC(C)Nc1nc(Nc2cccc(S(=O)(=O)N3CCCCC3)c2)ncc1Cl [Example 198]

- logP [1, 5]: 1.63[b]
Structure (SMILES): CC(C)Nc1nc(Nc2ccc3cc[nH]c3c2)ncc1Cl [Example 215]

- logP [1, 5]: 2.61[b]
Structure (SMILES): COCC(C)Nc1nc(Nc2ccc(OC(F)(F)C(F)F)cc2)ncc1Cl (centres unmarked) [Example 158]

- chromatographic logP ([1]; pH 2.3, logP [a]): 2.1
Structure (SMILES): COCC(C)Nc1nc(Cl)ncc1Cl (centres unmarked) [Example V-1, 2,5-Dichloro-N-(3-methoxypropan-2-yl)pyrimidine-4-amine]

- logP [1, 8]: 1.48[b]
Structure (SMILES): COCC(C)Nc1nc(Nc2ccc3c(c2)CCN3C(C)=O)ncc1Cl (centres unmarked) [Example 107]

- chromatographic logP [1, 2]: 1.65
Structure (SMILES): CCC(CO)Nc1nc(Cl)ncc1Cl (centres unmarked) [Example V-4, 2,5-dichloro-N-(1-hydroxybutan-2-yl)pyrimidine-4-amine]

- logP ([1]; values marked [a], pH 2.3): 2.47[a]
Structure (SMILES): COCC(C(C)C)N(C)c1nc(Nc2ccccc2)ncc1Br (centres unmarked) [Example 231]

- logP ([1]; values marked [a], pH 2.3): 1.04[a]
Structure (SMILES): CC(CO)Nc1nc(Nc2ccccc2)ncc1Cl (centres unmarked) [Example 223]

- logP [1, 3]: 1.96[a]
Structure (SMILES): CCC(CO)Nc1nc(Nc2cccc(Cl)c2)ncc1Cl (centres unmarked) [Example 17]

- logP [1, 4]: 2.05[b]
Structure (SMILES): CCC(C)Nc1nc(Nc2ccccc2)ncc1Cl (centres unmarked) [Example 296]

- chromatographic logP [1, 2]: 3.47
Structure (SMILES): Clc1ncc(Cl)c(NC2CCCCC2)n1 [Example V-18, 2,5-dichloro-N-cyclohexylpyrimidine-4-amine]

- chromatographic logP [1, 2]: 2.62
Structure (SMILES): CC(C)Nc1nc(Cl)ncc1Br [Example V-10, 5-bromo-2-chloro-N-(propan-2-yl)pyrimidine-4-amine]

- logP [1, 3]: 2.96[a];
- logP [1, 8]: 2.74[b]
- logP ([1]; method marker [c], footnote not given): 3.52[c];
Structure (SMILES): COCC(C)Nc1nc(Nc2ccccc2)ncc1C(F)(F)F (centres unmarked) [Example 25]

- chromatographic logP [1, 2]: 1.32
Structure (SMILES): Nc1cccc(CS(=O)(=O)NCc2ccccc2)c1 [IV-8, 1-(3-aminophenyl)-N-benzylmethanesulphonamide]

— patent US20110230478A1 (Bayer ScienceCrop AG, priority 2008, published 2011)
